Tests used:
[1] = tested on: NF-κB activation in U2OS cells; experiment: NF-κB dual luciferase reporter assay in U2OS cells overexpressing HA-NOD2; conditions: 100 nM, 24 hr
[2] = tested on: phospho-Ser176-RIPK2 (p-RIPK2) in NOD2-expressing HEK293 cells; experiment: Western blot of phospho-Ser176-RIPK2 in HEKBlue cells after L18-MDP
[3] = tested on: LPS and Pam3CSK4 responses in RAW264.7 cells; experiment: qRT-PCR of Toll-like receptor-dependent inflammatory gene expression in RAW264.7 cells (LPS, Pam3CSK4); assay type: cell-based, mouse; conditions: 100 nM
Experimental: Figure 6 Inhibition of NOD-Dependent Inflammatory Gene Expression in RAW264.7 Cells (A and B) Cells were pre-treated with 1, 10, or 100 nM inhibitors for 30 min and stimulated with 10 μg/ml MDP (A) or Tri-DAP (B) for 18–24 hr in triplicate. RNA samples were isolated and changes in gene expression were analyzed using gene-specific primers using SYBR qRT-PCR. All values were normalized to the levels of GAPDH. (C and D) Lack of inhibition of Toll-like receptor-dependent inflammatory gene expression in RAW264.7 cells. Experiments were performed as described above, except cells were stimulated with 10 ng/ml E. coli LPS (C) or 500 ng/ml Pam3CSK4 (D). All experiments were performed in triplicate; error bars indicate SD values.
40C centrifuge at 14,000 rpm for 15 min to collect lysates. Protein concentrations were measured using […] protein assay reagent (Pierce). […]
For ADPGlo (Promega) assays, 1 ng Abl or 10 ng of RIPK2 was diluted in reaction buff er (40 mM Tris-HCl pH 7.5, 20 mM MgCl2, 0.5 m M DTT, 0.01% BSA) supplemented with 50 µM ATP and 10-point dose range of inhibitors. […] Luminescent signal was generated by addition of 10 µL of kinase detection reagent for 30 minutes at room temperature and determined using Victor3V platereader (Perkin Elmer). Specific signal was calculated by subtracting values in the wells without protein and inhibitor from the values in the test wells. […]

SMILES: Cc1ccc(C(=O)Nc2ccc(CN3CCN(C)CC3)c(C(F)(F)F)c2)cc1C#Cc1cnc2cccnn12 [ponatinib, 3-[2-(imidazo[1,2-b]pyridazin-3-yl)ethynyl]-4-methyl-N-{4-[(4-methylpiperazin-1-yl)methyl]-3-(trifluoromethyl)phenyl}benzamide]
- NF-κB activation [1]: completely disabled
- concentration completely blocking RIPK2 phosphorylation [2]: 10 nM
- LPS and Pam3CSK4 responses [3]: partially attenuated

Reference: publication PMC4579271, “Inflammatory Signaling by NOD-RIPK2 Is Inhibited by Clinically Relevant Type II Kinase Inhibitors” (Chemistry & Biology, 2015)
